Experimental data reported in PubChem BioAssay AID330 (DTP/NCI, 2004).
Where “and” joins values, the source holds several entries; their conditions need not be identical. Equal entries are not always repeated. Inconclusive results and toxic doses are left out. Rule for the calls: active = survival T/C of 150% or more; inactive = T/C below 125% in these data.

System: P388 leukemia ip, CD2F1 mice, survival T/C
Test: NCI In Vivo Anticancer Drug Screen. Data for tumor model P388 Leukemia (intraperitoneal) in CD2F1 (CDF1) mice
Settings: endpoint: median survival time, higher = longer survival
Outline: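 Mice carrying the transplanted tumor received test compound or vehicle. Survival was recorded in each group, and the value is the treated-group measurement divided by that of the vehicle-treated control group.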

[1] = dose: 60.0 mg/kg/injection, schedule: Q01DX005 (ip), vehicle: Klucel (hydroxypropylcellulose) (HPC)
[2] = dose: 120.0 mg/kg/injection, schedule: Q01DX005 (ip), vehicle: Klucel (hydroxypropylcellulose) (HPC)
[3] = dose: 100.0 mg/kg/injection, schedule: Q04DX002 (ip), vehicle: Klucel (hydroxypropylcellulose) (HPC)
[4] = dose: 200.0 mg/kg/injection, schedule: Q04DX002 (ip), vehicle: Klucel (hydroxypropylcellulose) (HPC)
[5] = dose: 100.0 mg/kg/injection, schedule: Q04DX003 (ip), vehicle: saline with Tween-80
[6] = dose: 200.0 mg/kg/injection, schedule: Q04DX003 (ip), vehicle: saline with Tween-80
[7] = dose: 400.0 mg/kg/injection, schedule: Q04DX003 (ip), vehicle: saline with Tween-80
[8] = dose: 25.0 mg/kg/injection, schedule: Q01DX005 (ip), vehicle: Klucel (hydroxypropylcellulose) (HPC)

Measured: T/C

c1ccc(CC23CCCCC2N3)cc1 (stereo not given)
inactive: dose: 12.5 mg/kg/injection, schedule: Q01DX009 (ip), vehicle: saline 95 % of control | dose: 12.5 mg/kg/injection, schedule: Q04DX003 (ip), vehicle: saline 90 % of control | dose: 25.0 mg/kg/injection, schedule: Q01DX009 (ip), vehicle: saline 113 % of control | dose: 25.0 mg/kg/injection, schedule: Q04DX003 (ip), vehicle: saline 90 % of control | dose: 50.0 mg/kg/injection, schedule: Q01DX009 (ip), vehicle: saline 100 % of control | dose: 50.0 mg/kg/injection, schedule: Q04DX003 (ip), vehicle: saline 100 % of control

O=C1OC2(O)c3ccccc3C(=O)N2N2CCCC12 (stereo not given)
inactive: [1] 109 % of control | [2] 98 % of control | dose: 240.0 mg/kg/injection, schedule: Q01DX005 (ip), vehicle: Klucel (hydroxypropylcellulose) (HPC) 98 % of control

O=C1CC2(CCCC2)CC(=O)N1c1ccc(O)c(CN2CCOCC2)c1
inactive: [3] 97 % of control | [4] 89 % of control | dose: 400.0 mg/kg/injection, schedule: Q04DX002 (ip), vehicle: Klucel (hydroxypropylcellulose) (HPC) 90 % of control

c1ccc(C2=NCC(c3ccccc3)(C3(c4ccccc4)SCCCS3)O2)cc1 (stereo not given)
inactive: [5] 95 % of control | [6] 97 % of control | [7] 91 % of control

CCOc1c(N=Nc2ccc(Br)cc2)c(C)nn1C(=S)S
inactive: [1] 105 % of control | [2] 109 % of control

NC(=O)C1(N(CCO)CCO)CCCC1
inactive: dose: 50.0 mg/kg/injection, schedule: Q01DX005 (ip), vehicle: saline 104 % of control | dose: 100.0 mg/kg/injection, schedule: Q01DX005 (ip), vehicle: saline 98 % of control | dose: 200.0 mg/kg/injection, schedule: Q01DX005 (ip), vehicle: saline 105 % of control

O=C(CNC(=O)C(Cc1c[nH]c2ccccc12)NC(=O)OCc1ccccc1)NCC(=O)OCc1ccccc1 (stereo not given)
inactive: dose: 50.0 mg/kg/injection, schedule: Q01DX005 (ip), vehicle: saline with Tween-80 104 % of control | dose: 100.0 mg/kg/injection, schedule: Q01DX005 (ip), vehicle: saline with Tween-80 100 % of control | dose: 200.0 mg/kg/injection, schedule: Q01DX005 (ip), vehicle: saline with Tween-80 110 % of control

[CH3][Sn]1([CH3])[O]C2C(O)OC(CO)C(O)C2[O]1 (stereo not given)
inactive: dose: 6.25 mg/kg/injection, schedule: Q01DX005 (ip), vehicle: Klucel (hydroxypropylcellulose) (HPC) 108 % of control and 113 % of control | dose: 12.5 mg/kg/injection, schedule: Q01DX005 (ip), vehicle: Klucel (hydroxypropylcellulose) (HPC) 110 % of control and 111 % of control (2×) | [8] 109 % of control and 120 % of control and 121 % of control

Cn1c(C2(C)C(=O)NC(=O)c3cnccc32)cc2ccccc21 (stereo not given)
inactive: [3] 103 % of control | [4] 92 % of control

COc1cc2c(cc1OC)C(CS(C)=O)Cc1cc(OC)c(OC)cc1N(C)CCC2 (stereo not given)
inactive: [5] 93 % of control | [6] 87 % of control | [7] 100 % of control

CCCCn1c(CCC)nc([N+](=O)[O-])c1Sc1ncn[nH]1
inactive: [8] 98 % of control | dose: 50.0 mg/kg/injection, schedule: Q01DX005 (ip), vehicle: Klucel (hydroxypropylcellulose) (HPC) 117 % of control and 118 % of control | dose: 100.0 mg/kg/injection, schedule: Q01DX005 (ip), vehicle: Klucel (hydroxypropylcellulose) (HPC) 114 % of control | dose: 200.0 mg/kg/injection, schedule: Q01DX005 (ip), vehicle: Klucel (hydroxypropylcellulose) (HPC) 122 % of control and 123 % of control

COc1ccc(C(=O)/C=C/c2c[nH]c3ccccc23)c(O)c1
inactive: dose: 15.0 mg/kg/injection, schedule: Q01DX005 (ip), vehicle: saline with Tween-80 96 % of control | dose: 30.0 mg/kg/injection, schedule: Q01DX005 (ip), vehicle: saline with Tween-80 96 % of control | dose: 60.0 mg/kg/injection, schedule: Q01DX005 (ip), vehicle: saline with Tween-80 96 % of control | dose: 120.0 mg/kg/injection, schedule: Q01DX005 (ip), vehicle: saline with Tween-80 92 % of control | dose: 240.0 mg/kg/injection, schedule: Q01DX005 (ip), vehicle: saline with Tween-80 96 % of control
